Experiments:
Assay in all cases: relative viability (nuclei count vs DMSO), 5 days (fraction); higher = more cells survive
R406 + Olaparib = compound: COc1cc(Nc2ncc(F)c(Nc3ccc4c(n3)NC(=O)C(C)(C)O4)n2)cc(OC)c1OC [R406] + O=C(c1cc(Cc2n[nH]c(=O)c3ccccc23)ccc1F)N1CCN(C(=O)C2CC2)CC1 [Olaparib] (partner 8 µM)
Procedure, shortened: (§1)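 A single step with final 0.05% Triton X-100, 1% formaldehyde and 1 ug/ml Hoechst fixed the cells and stained nuclei 5 days after treatment. Lung cancer cell lines in 1536-well plates had been treated by pin tool the day after seeding with one drug alone or a fixed anchor-drug dose plus five library-drug doses (not always all listed) in √10 steps, and nuclei were counted on 4× images. Relative viability is the ratio of nuclei in treated wells to nuclei in vehicle wells, taken as the median of duplicate plates.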

Daporinad + Bortezomib = compound: O=C(/C=C/c1cccnc1)NCCCCC1CCN(C(=O)c2ccccc2)CC1 [Daporinad] + CC(C)C[C@H](NC(=O)[C@H](Cc1ccccc1)NC(=O)c1cnccn1)B(O)O [Bortezomib] (partner 0.002 µM)
Procedure, shortened: as §1

R406 + Alpelisib = compound: COc1cc(Nc2ncc(F)c(Nc3ccc4c(n3)NC(=O)C(C)(C)O4)n2)cc(OC)c1OC [R406] + Cc1nc(NC(=O)N2CCC[C@H]2C(N)=O)sc1-c1ccnc(C(C)(C)C(F)(F)F)c1 [Alpelisib] (partner 2 µM)
Procedure, shortened: as §1

Daporinad + Linsitinib = compound: O=C(/C=C/c1cccnc1)NCCCCC1CCN(C(=O)c2ccccc2)CC1 [Daporinad] + C[C@]1(O)C[C@@H](c2nc(-c3ccc4ccc(-c5ccccc5)nc4c3)c3c(N)nccn32)C1 [Linsitinib] (partner 1 µM)
Procedure, shortened: as §1

Row | Cell Line | relative viability (R406 + Olaparib; first compound 0.08 µM) | relative viability (R406 + Olaparib; first compound 0.253 µM) | relative viability (R406 + Olaparib; first compound 0.8 µM) | relative viability (R406 + Olaparib; first compound 2.53 µM) | relative viability (R406 + Olaparib; first compound 8 µM) | relative viability (Daporinad + Bortezomib; first compound 0.0005 µM) | relative viability (Daporinad + Bortezomib; first compound 0.001581 µM) | relative viability (Daporinad + Bortezomib; first compound 0.005 µM) | relative viability (Daporinad + Bortezomib; first compound 0.01581 µM) | relative viability (R406 + Alpelisib; first compound 0.08 µM) | relative viability (R406 + Alpelisib; first compound 0.253 µM) | relative viability (R406 + Alpelisib; first compound 0.8 µM) | relative viability (R406 + Alpelisib; first compound 2.53 µM) | relative viability (R406 + Alpelisib; first compound 8 µM) | relative viability (Daporinad + Linsitinib; first compound 0.0005 µM) | relative viability (Daporinad + Linsitinib; first compound 0.001581 µM) | relative viability (Daporinad + Linsitinib; first compound 0.005 µM) | relative viability (Daporinad + Linsitinib; first compound 0.01581 µM)
1 | NCI-H1703 | 0.298 | 0.474 | 0.355 | 0.277 | 0.124 | 0.403 | 0.382 | 0.422 | 0.196 | 0.307 | 0.281 | 0.368 | 0.183 | 0.173 | 0.77 | 1.27 | 0.996 | 0.626
2 | LCLC-103H | 0.77 | 0.888 | 0.81 | 0.762 | 0.302 | 1.11 | 1 | 1.07 | 1.04 | 0.906 | 1.1 | 0.901 | 0.901 | 0.741 | 1.01 | 1.2 | 1.16 | 1.21
3 | RERF-LC-KJ | 1.05 | 0.947 | 0.908 | 0.756 | 0.585 | 0.996 | 1.05 | 1.45 | 1.26 | 0.87 | 1.07 | 0.971 | 0.738 | 0.597 | 0.883 | 0.893 | 1.01 | 0.949
4 | BEN | 1.09 | 1.24 | 1.28 | 1.04 | 0.871 | 0.805 | 0.796 | 1.04 | 1.12 | 1.08 | 1.3 | 1.07 | 0.99 | 0.766 | 0.923 | 0.938 | 0.951 | 1.22
5 | NCI-H1666 | 0.74 | 0.797 | 0.725 | 0.824 | 0.687 | 0.846 | 0.93 | 0.9 | 0.742 | 1.11 | 0.953 | 1.02 | 0.786 | 0.385 | 0.834 | 0.764 | 0.747 | 0.839
6 | LC-2-ad | 0.728 | 0.809 | 0.694 | 0.699 | 0.45 | 0.978 | 1.07 | 0.952 | 0.844 | 0.769 | 0.802 | 0.909 | 0.329 | 0.0848 | 0.688 | 0.972 | 0.877 | 0.83
7 | SW 1573 | 0.492 | 0.57 | 0.607 | 0.399 | 0.158 | 1.12 | 0.769 | 1.05 | 0.714 | 0.753 | 1.02 | 0.739 | 0.673 | 0.494 | 0.889 | 0.848 | 0.747 | 0.551
8 | COR-L 105 | 0.592 | 0.704 | 0.554 | 0.59 | 0.602 | 0.827 | 0.815 | 0.781 | 0.753 | 1.26 | 1.01 | 1.4 | 0.757 | 0.641 | 0.927 | 1.07 | 0.842 | 1.08
9 | NCI-H1975 | 0.706 | 0.862 | 0.783 | 0.311 | 0.204 | 0.397 | 0.395 | 0.332 | 0.402 | 0.624 | 0.598 | 0.682 | 0.276 | 0.157 | 1.14 | 0.99 | 0.92 | 0.812
10 | Calu-6 | 0.556 | 0.571 | 0.576 |  | 0.271 | 0.957 | 1.04 | 0.848 | 0.352 | 1.01 | 1.14 | 1.13 | 0.66 | 0.389 | 0.841 | 1.03 | 0.926 | 0.821
11 | NCI-H1993 | 1.14 | 1.02 | 1.07 | 0.992 | 0.918 | 0.919 | 1.21 | 1.09 | 1.12 | 0.692 | 0.741 | 0.772 | 0.653 | 0.599 | 0.703 | 0.715 | 0.782 | 0.77
12 | SK-LU-1 | 0.441 | 0.44 | 0.464 | 0.249 | 0.213 | 0.921 | 1.34 | 1.16 | 1.61 | 1.01 | 0.849 | 1.05 | 0.368 | 0.203 | 1.26 | 1.13 | 1.05 | 1.09
13 | NCI-H23 | 0.277 | 0.271 | 0.236 | 0.263 | 0.139 | 1.18 | 0.919 | 0.888 | 0.427 | 0.638 | 0.759 | 0.786 | 0.732 | 0.438 | 0.699 | 0.518 | 0.537 | 0.279
14 | HCC-366 | 0.33 | 0.391 | 0.349 | 0.316 | 0.0913 | 0.971 | 1.1 | 1.12 | 1.04 | 0.41 | 0.439 | 0.441 |  | 0.0784 | 0.687 | 0.753 | 0.87 | 0.887
15 | EMC-BAC-2 | 0.46 | 0.547 | 0.468 | 0.393 | 0.307 | 1.22 | 1.04 | 1.06 | 0.301 | 0.773 | 0.786 | 0.801 | 0.628 | 0.384 | 0.904 | 0.797 | 0.802 | 0.339
16 | NCI-H2405 | 0.857 | 0.879 | 0.879 | 0.748 | 0.306 | 1 | 0.772 | 1.02 | 0.612 | 0.751 | 0.756 | 0.795 | 0.466 | 0.205 | 0.987 | 1.06 | 1.04 | 0.611
17 | EPLC-272H | 0.8 | 0.754 | 0.707 | 0.325 | 0.112 | 0.86 | 1.04 | 0.98 | 1.14 | 0.989 | 1.2 | 0.969 | 0.607 | 0.567 | 1.11 | 1.32 | 1.31 | 1.4
18 | EBC-1 | 0.671 | 0.783 | 0.843 | 0.644 | 0.369 | 0.546 | 0.506 | 0.558 | 0.623 | 0.826 | 0.969 | 1.03 | 0.606 | 0.386 | 0.747 | 1.21 | 0.801 | 1.07
